# Data reported in publication PMC6301090 (Nature medicine, 2018).
# Biological target: ΔF508-NBD1 (CFTR nucleotide binding domain 1) (Homo sapiens, UniProt P13569, F494N/DEL508-508)
# Assay: SPR
compound,measurement,value
"O=C(O)Cc1c(Br)[nH]c2ccccc12 [BIA, bromoindole-3-acetic acid]",Kd,> 1000 µM
